One data set relates to Micrococcus luteus. Nature of the data set: Antimicrobial activity against Micrococcus luteus DSM 348. It counts as functional.
For another data set, the system named is Bacillus subtilis. Briefly: Antimicrobial activity against Bacillus subtilis DSM 347. The format is functional.
The subject of the next data set is Artemia salina. Nature of the data set: Toxicity against Artemia salina. It counts as organism-based. To be noted: in vivo.

In brackets after ≈: the same amount, converted by molar mass.

Our source for the MIC and LC50 values is ChEMBL document CHEMBL1150094, “Cacospongionolide B, a new sesterterpene from the sponge Fasciospongia cavernosa” (J Nat Prod, 1995).

In the case of `C=C1CCC[C@H]2[C@](C)(CCC3=CCC(C4=CC(=O)OC4O)OC3)[C@H](C)CC[C@]12C` (stereo partly drawn) [CACOSPONGIONOLIDE B], the minimal inhibitory concentration (MIC) in the data set with Micrococcus luteus and against Bacillus subtilis was 0.78 µg/mL (≈ 1.95 µM) throughout. In the data set on Artemia salina, this compound gave an LC50 of 0.25 ppm.
